The results in this text go back to patent US20240285643A1, “TREATING INFLUENZA USING SUBSTITUTED POLYCYCLIC PYRIDONE DERIVATIVES AND PRODRUGS THEREOF IN A SUBJECT HAVING INFLUENZA AND A SEVERE INFLUENZA CONDITION” (Shionogi & Co., Ltd., priority 2019, published 2024).

For data set [1], the system named is influenza type A virus A/Osaka/129/2009 and Streptococcus pneumoniae SR1326. It is filed as in vivo, BALB/c mice. Conditions: for mice survived: BXA 10 mg/kg sc single dose, OSP 10 mg/kg po bid 5 days, through 15 days.
Data set [2] has the same test system. It is filed as in vivo, BALB/c mice. The note with it: for mice recovered from body weight loss and survived: BXA 10 mg/kg sc single dose, OSP 10 mg/kg po bid 5 days.
On the set-up of data set [3]: species or system rats. Conditions: rat, po. From the text: FIGS. 1 and 2 show a result of measuring the plasma concentration of Compound (III) and Compound (II-6), respectively, after oral administration of prodrug Compound (II-6) to rats under non-fasting conditions.
For data set [4] the following is noted: SD, rat, in vivo.
A short description of data set [5]: clinical. The note with it: human, in vivo. As for the experimental part: Patients were administered up to three doses of baloxavir marboxil separated by 3 days (i.e., Days 1, 4, and 7). […] Likewise, total drug exposure simulated on Day 7 area under the plasma concentration-time curve for a dosing interval (AUCtau) was not expected to exceed area under the concentration-time curve from Time 0 to infinity (AUCinf) of the TQT, regardless of dose.

Usually Cmax stands for the maximum level reached in the sampled fluid or tissue. One may read the half-life as the time in which the quantity being followed falls by half.

With `CCOC(=O)C1=C[C@@H](OC(CC)CC)[C@H](NC(C)=O)[C@@H](N)C1` [OSP, Oseltamivir phosphate, reference compound], the “survival time compared with vehicle treatment” value in data set [1] (2-day delayed treatment, log rank test) is listed as “significantly prolonged”. Besides, the mice survived entry in data set [1] is listed as “all mice died”. Moreover, the “mice recovered from body weight loss and survived” value in data set [2] was “all mice died”. In data set [2] (mouse, in vivo), the efficacy on survival result is on record as “not effective”.
`COC(=O)OCOc1c2n(ccc1=O)N([C@@H]1c3ccccc3SCc3c1ccc(F)c3F)[C@@H]1COCCN1C2=O` [II-6, baloxavir marboxil]: the “conversion of prodrug to Compound (III) in vivo” value in data set [3] is on record as “metabolized promptly to Compound (III)”. For the same compound, the “BA (%)” value in data set [4] worked out at 14.9%.
Consider `CC(=O)Oc1c2n(ccc1=O)N([C@@H]1c3ccccc3SCc3c1ccc(F)c3F)[C@@H]1COCCN1C2=O` [II-4], for which the “BA (%)” value in data set [4] stood at 20.0%.
As for `O=C1c2c(O)c(=O)ccn2N([C@@H]2c3ccccc3SCc3c2ccc(F)c3F)[C@@H]2COCCN12` [III, baloxavir], the “BA (%)” value in data set [4] is on record as 4.2%. Besides, in data set [1], the mice survived stood at 75%. Further, in data set [2], the “mice recovered from body weight loss and survived” value amounted to 40%. In data set [5], the highest level (Cmax) was 126 ng/mL and the half-life was ~70 h.
Turning to baloxavir marboxil [II-6], the “body weight change after virus infection” value in data set [1] (2-day delayed treatment, compared with vehicle, OSP or monotherapy) is on record as “less reduction of body weight”.
